This note sets out measurements from paper PMC9743128, “Phenotype-based screening rediscovered benzopyran-embedded microtubule inhibitors as anti-neuroinflammatory agents by modulating the tubulin–p65 interaction” (Experimental & Molecular Medicine, 2022).

For one series, the target named is T1, tubulin (Sus scrofa, UniProt P02550+P02554).
T1 construct: purchased Cytoskeleton BK006P
The series is described as follows: Tubulin polymerization assay. Type of series: biochemical. The conditions noted are these: 1 μM compound. As to the method: The tubulin polymerization inhibition efficacy of the compounds was measured by a tubulin polymerization assay kit (Cytoskeleton; BK006P) according to the manufacturer’s manual. Absorbance at 340 nm was measured to observe the formation of tubulin polymers using a microplate reader (Biotek; Synergy).
Supplementary Fig. 4. Tubulin polymerization inhibition by compounds 1–13 (1 μM). In the presence or absence of compounds, tubulin was incubated to polymerize at room temperature. Absorbance at 340 nm was measured in a time-dependent manner for monitoring the rate of tubulin polymerization.
Supplementary Table 2. Tubulin polymerization inhibition of the focused library. Tubulin was incubated with each compound (1 μM) and the tubulin polymerization inhibition was monitored. Vmax was calculated from tubulin polymer generation curve data of Supplementary Fig. 3.

The test system of series [1] is α-tubulin monomers in RAW264.7 cells. In words: Tubulin monomer/polymer isolation and western blot. Type of series: cell-based, murine. The following applies: 10 μM for 6 h.
Description: To separate soluble tubulin monomers from insoluble tubulin polymers, cells were washed very gently with PBS and incubated for 10 min at room temperature with a microtubule-stabilizing buffer {10% Tris–HCl (pH 6.8) (Acros; #77-86-1), 10% glycerol (Biosesang; GR1018-500-00), 1 mM EGTA (Sigma; E3889), 1 mM MgSO4 (Sigma; M2773), 0.1 mM EDTA (Acros; #409971000), and 1× protease inhibitor cocktail} containing additional 0.1% Triton X-100 (Sigma; T8787). The remaining insoluble tubulin polymers on the culture dish were scraped with microtubule-stabilizing buffer containing an additional 0.5% SDS (Sigma; L3771).
In another series the test system is J774A.1 cells. In words: Flow cytometry cell cycle analysis (PI staining). Type of series: cell-based, murine. How it is done:
NF-κB SEAP reporter HEK293T cell (Invivogen; hkb-mmcl) were seeded 10,000 cells/well at white 96-well plate (Falcon; 353296). HEK293 cells were transfected with a 1 to 1 ratio of 3xAP1pGL3 (Addgene; #40342) and pRL-TK (Promega; E2241) mixture using LTX plus (Invitrogen; 15338100) and opti-MEM (Gibco; 31985070) according to the manufacturer's protocol. After 24-h compound treatment or the overexpression of α-tubulin or GFP, 40 μl of the medium was transferred to a 96-well plate and mixed with 180 μl of quanti-blue solution (Invitrogen; rep-qbs) for the measurement of NF-κB activation. We measured the absorbance at 655 nm after 2-h incubation at 37 °C. To measure the AP-1 activation, cells were washed with PBS and lysed with 20 μl of 1× passive lysis buffer for 15 min. Luciferase signals were measured by dual-luciferase reporter assay system (Progema; E1980) using a microplate reader (BioTek; Synergy HTX). Expression levels of SEAP and AP-1 were normalized by renilla luciferase signal.
J774A.1 cells were treated with each compound for the designated time and dose. The cells were trypsinized and re-suspended in PBS containing 2% FBS (Gibco; #16000-044). To measure cell cycle arrest, the same number of the re-suspended cells was stained with propidium iodide (PI) (Abcam; ab14085) according to the manufacturer’s protocol. […]
For orientation: A flow cytometer gives signals particle by particle.

In a further series the test system is IκB in J774A.1 cells. In words: Western blot of IκB. Type of series: cell-based. The following applies: murine macrophage cells; inhibited by MG132 pretreatment. As to the method:
The proteome was analyzed by SDS‒PAGE and transferred to PVDF membranes (Bio-Rad; BR162-0177). The membranes were blocked with 2% BSA in Tris-buffered saline containing 0.1% Tween-20 (TBST) for 1 h. To detect the desired proteins, the membranes were incubated overnight at 4 °C with the primary antibodies—1:1000 dilution of α-tubulin (CST; #3873), β-tubulin (CST; #2146), IκB (CST; #4814), caspase-1 (CST; #24232), cleaved caspase-1 (CST; #89332), IL-1β (CST; #31202), cleaved IL-1β (CST; #63124), acetylated α-tubulin (CST; #5335), p65 (Abcam; ab16502), FLAG (Abcam; ab49763); and 1:2,000 dilution of GAPDH (CST; #2118), β-actin (CST; #4970), and LMNB1 (Abcam; ab16048). After washing with TBST, the resulting membranes were exposed to HRP-conjugated secondary antibody—1:5000 dilution of anti-rabbit (CST; #7074) and anti-mouse (CST; #7076)—for 1 h at room temperature. After washing with TBST, the membranes were incubated with an enhanced chemiluminescence (ECL) prime kit (Cytiva; RPN2232). Chemiluminescent signals from the desired proteins were detected using ChemiDoc. […]
To understand the inhibitory mechanism of p65 nuclear translocation by SB26019, the expression levels of p65, IκB, and tubulin monomers were monitored upon SB26019 treatment in murine macrophage cells. […] To test this hypothesis, we monitored protein‒protein interactions among p65, IκB, and tubulin with immunoprecipitation. […]
On the technique in general: In western blotting, separated proteins are transferred to a membrane and probed.

Structures are written as SMILES.

T1 sequence (P02554 whole entry): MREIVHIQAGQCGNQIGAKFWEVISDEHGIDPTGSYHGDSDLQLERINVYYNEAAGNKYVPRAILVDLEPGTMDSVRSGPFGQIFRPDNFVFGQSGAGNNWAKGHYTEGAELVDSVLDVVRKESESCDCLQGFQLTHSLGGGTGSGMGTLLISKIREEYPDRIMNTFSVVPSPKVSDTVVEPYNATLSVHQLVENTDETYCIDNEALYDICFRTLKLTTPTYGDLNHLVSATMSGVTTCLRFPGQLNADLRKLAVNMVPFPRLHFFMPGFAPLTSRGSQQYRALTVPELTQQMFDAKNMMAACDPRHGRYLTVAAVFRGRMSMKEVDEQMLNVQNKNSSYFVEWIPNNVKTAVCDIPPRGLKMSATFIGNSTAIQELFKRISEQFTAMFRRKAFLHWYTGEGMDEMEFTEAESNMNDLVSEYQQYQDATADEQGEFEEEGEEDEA
T1 sequence (P02550 whole entry): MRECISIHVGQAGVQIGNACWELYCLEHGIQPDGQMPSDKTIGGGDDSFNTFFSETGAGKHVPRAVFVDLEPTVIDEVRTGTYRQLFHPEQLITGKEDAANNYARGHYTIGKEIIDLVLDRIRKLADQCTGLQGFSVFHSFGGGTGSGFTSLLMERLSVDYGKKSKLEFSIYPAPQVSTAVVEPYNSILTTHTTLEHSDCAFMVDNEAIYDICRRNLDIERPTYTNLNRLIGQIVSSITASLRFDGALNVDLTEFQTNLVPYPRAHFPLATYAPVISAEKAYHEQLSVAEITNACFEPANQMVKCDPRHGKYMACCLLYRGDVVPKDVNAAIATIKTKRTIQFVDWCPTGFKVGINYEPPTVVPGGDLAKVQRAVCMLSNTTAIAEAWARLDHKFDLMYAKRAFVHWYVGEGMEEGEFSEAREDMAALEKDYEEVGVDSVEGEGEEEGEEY

With `COc1ccc2c(c1O)OC(C)(C)C=C2c1cccc2c1oc1ccccc12` [Compound 8], the “Vmax of microtubule polymerization compared to DMSO control” value at tubulin is listed as “significantly inhibited tubulin polymerization”. For the same compound, the “Total α-tubulin monomers” value in series [1] is on record as “increased the total α-tubulin monomers”. Also, the Cell cycle arrest result in the series with J774A.1 cells is “no cell cycle arrest”. Moreover, in the series with IκB in J774A.1 cells, the IκB degradation result is “induced IκB degradation in a time- and dose-dependent manner”.
